Laboratory results taken from ChEMBL document CHEMBL1201862, “PubChem BioAssay data set” (2004).
Calls of active or inactive are those of the source.

Key:
Paired box protein Pax-8 = Paired box protein Pax-8 (Homo sapiens, UniProt Q06710); test: PAX8 transcriptional activity inhibition in RMG-I – RMG-I cells, luciferase, cherry-pick, dose response (AID 687027); format: functional, cell-based;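 also: luciferase reporter driven by Pax8 target thyroperoxidase promoter measured by SteadyGlo luminescence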
[1] = OVCAR8 cell viability loss – plate reader, dry powder samples, PAX8 project, dose response (AID 743197); format: functional, cell-based; settings: OVCAR-8
[2] = IGROV1 cell killing – plate reader, dry powder samples, PAX8 inhibitor project, dose response (AID 743043); format: functional, cell-based; settings: IGROV-1
[3] = target: 1-phosphatidylinositol 4,5-bisphosphate phosphodiesterase gamma-1 (Homo sapiens, UniProt P19174); test: Counterscreen for inhibitors of phospholipase C isozymes (PLC-B3): Fluorescence-based biochemical high throughput dose response assay to identify inhibitors of phospholipase C isozymes (PLC-gamma1).
Nonstructural protein 1 = Nonstructural protein 1 (Influenza A virus, UniProt Q194T2); format: functional, Influenza A virus (A/California/07/2009(H1N1))
[4] = target: 1-phosphatidylinositol 4,5-bisphosphate phosphodiesterase beta-3 (Homo sapiens, UniProt Q01970); test: Fluorescence-based biochemical high throughput dose response assay to identify inhibitors of phospholipase C isozymes (PLC-B3).
[5] = loss of viability in HepG2 cells – cell-based, CellTiter-Glo, cherry-picked, cytotoxicity control for Shn3 inhibitor project, dose response (AID 624134); format: functional
cells = format: functional, cell-based; settings: HEK-CNG
[6] = non-specific 3'UTR reporter inhibition in Clone20-Shn3RL – cell-based, Renilla luciferase, cherry-picked, counter-screen for Shn3 inhibitor project, dose response (AID 624133); format: functional
[7] = target: COUP transcription factor 2 (Homo sapiens, UniProt P24468); test: Luminescence-based cell-based high throughput dose response assay to identify inhibitors of COUP-TFII (NR2F2).; format: functional;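 also: HEK293 cells transiently cotransfected with COUP-TFII expression vector and reporter; luciferase reporter luminescence driven by COUP-TFII from the pX2-168 reporter plasmid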
Galanin receptor type 3 = target: T1, Galanin receptor type 3 (Homo sapiens, UniProt O60755); test: Fluorescence-based cell-based primary high throughput dose response assay to identify antagonists of the Galanin Receptor 3 (GalR3).; format: functional
T1 sequence (O60755 whole entry): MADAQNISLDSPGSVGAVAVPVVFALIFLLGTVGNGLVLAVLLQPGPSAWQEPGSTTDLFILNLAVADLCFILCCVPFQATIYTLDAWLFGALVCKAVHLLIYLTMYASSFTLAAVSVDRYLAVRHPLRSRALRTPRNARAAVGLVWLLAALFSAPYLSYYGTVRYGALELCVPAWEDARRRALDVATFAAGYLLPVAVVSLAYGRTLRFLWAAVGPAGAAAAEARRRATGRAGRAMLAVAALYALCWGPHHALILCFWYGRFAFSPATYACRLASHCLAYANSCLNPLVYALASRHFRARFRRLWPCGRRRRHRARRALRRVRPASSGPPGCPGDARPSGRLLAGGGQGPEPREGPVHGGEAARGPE

[8] = reduction of Shn3 3'UTR-driven luciferase in osteoblasts – cell-based, Clone20 osteoblasts, firefly luciferase, cherry-picked, dose response (AID 624132); format: functional;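 also: firefly luciferase luminescence from reporter carrying the Shn3 3'UTR in osteoblasts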
[9] = blockade of melanocortin 4 receptor signaling – cell-based, plate reader, cherry pick, counter-screen for LGR2 antagonist project, dose response (AID 743444); format: functional;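 also: transfected HEK 293 cells stimulated with alpha-MSH peptide; potency of inhibitors of the alpha-MSH evoked signal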
[10] = viability loss in HEK293 cells – cell-based, plate reader, cherry-picked samples, cytotoxicity control, dose response (AID 743446); format: functional
[11] = toxicity toward HepG2 liver cells – cell-based, plate reader, cherry-pick, antagonist series, cytotoxicity control, dose response (AID 743416); format: functional
[12] = viability loss in HepG2 hepatoma cells – cell-based, ATP luminescence, cherry-pick, activator set 2, cytotoxicity control, dose response (AID 1053143); format: functional
[13] = blockers of bursicon-stimulated LGR2 cAMP reporter – cell-based, HEK293, CRE-luciferase reporter, cherry pick, set 2, dose response (AID 743343); format: functional;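 also: transfected cells were stimulated with diluted bursicon conditioned medium after compound addition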
[14] = A549 cell cytotoxicity, dose response, cytotoxicity control, plate reader, cherry-pick, antagonist series (AID 743412); format: functional, cell-based
[15] = target: T2, Sentrin-specific protease 6 (Homo sapiens, UniProt Q9GZR1); format: functional;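 also: Luminescence-based dose-response confirmatory assay of SENP6 inhibition, following up an ultra-high-throughput screen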
T2 sequence (Q9GZR1 whole entry): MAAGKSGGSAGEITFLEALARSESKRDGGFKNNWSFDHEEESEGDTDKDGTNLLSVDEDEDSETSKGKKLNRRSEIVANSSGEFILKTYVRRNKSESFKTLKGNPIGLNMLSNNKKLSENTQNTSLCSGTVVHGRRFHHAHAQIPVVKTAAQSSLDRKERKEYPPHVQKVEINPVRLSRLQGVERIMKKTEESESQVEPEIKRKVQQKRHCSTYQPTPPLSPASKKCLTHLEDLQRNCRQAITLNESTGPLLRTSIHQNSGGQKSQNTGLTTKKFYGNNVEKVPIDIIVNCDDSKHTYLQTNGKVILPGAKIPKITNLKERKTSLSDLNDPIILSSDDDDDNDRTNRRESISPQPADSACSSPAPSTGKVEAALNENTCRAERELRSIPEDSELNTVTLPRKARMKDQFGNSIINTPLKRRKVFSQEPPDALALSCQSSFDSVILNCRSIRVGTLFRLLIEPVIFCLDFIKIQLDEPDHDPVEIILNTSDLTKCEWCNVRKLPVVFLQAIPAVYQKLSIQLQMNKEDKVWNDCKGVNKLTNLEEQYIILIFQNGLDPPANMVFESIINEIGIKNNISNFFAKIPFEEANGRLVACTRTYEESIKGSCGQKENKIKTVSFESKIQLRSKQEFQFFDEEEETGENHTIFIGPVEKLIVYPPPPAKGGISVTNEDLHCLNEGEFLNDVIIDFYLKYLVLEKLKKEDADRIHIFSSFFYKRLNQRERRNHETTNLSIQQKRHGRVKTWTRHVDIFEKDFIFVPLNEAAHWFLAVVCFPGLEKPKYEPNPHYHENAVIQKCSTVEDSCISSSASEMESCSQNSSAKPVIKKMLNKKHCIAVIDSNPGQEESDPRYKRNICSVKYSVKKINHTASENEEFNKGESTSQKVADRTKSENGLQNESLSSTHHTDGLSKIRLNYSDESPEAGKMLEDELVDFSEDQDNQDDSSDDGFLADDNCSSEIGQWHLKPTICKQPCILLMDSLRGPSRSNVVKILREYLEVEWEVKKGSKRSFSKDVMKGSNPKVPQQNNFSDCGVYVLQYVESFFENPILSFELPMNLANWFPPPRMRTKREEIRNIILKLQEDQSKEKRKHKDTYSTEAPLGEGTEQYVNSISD

[16] = Luminescence Cell-Based Dose Response to Identify Activators of 5'UTR Stem-Loop Driven Prion Protein mRNA Translation in H4-C Neuroglioblastoma Cells. [Related pubchem assays: 1829 (Project Summary), 1814 (Primary HTS)]; format: functional
[17] = Luminescence Cell-Based Dose Response to Identify Activators of Luciferase Translation or Activity in H4-C Neuroglioblastoma Cells. [Related pubchem assays: 1829 (Project Summary), 1814 (Primary HTS)]; format: functional
[18] = target: T3, Sentrin-specific protease 7 (Homo sapiens, UniProt Q9BQF6); format: functional;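 also: Luminescence-based dose-response confirmation of ultra-high-throughput screening hits, measuring inhibition of SENP7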
T3 sequence (Q9BQF6 whole entry): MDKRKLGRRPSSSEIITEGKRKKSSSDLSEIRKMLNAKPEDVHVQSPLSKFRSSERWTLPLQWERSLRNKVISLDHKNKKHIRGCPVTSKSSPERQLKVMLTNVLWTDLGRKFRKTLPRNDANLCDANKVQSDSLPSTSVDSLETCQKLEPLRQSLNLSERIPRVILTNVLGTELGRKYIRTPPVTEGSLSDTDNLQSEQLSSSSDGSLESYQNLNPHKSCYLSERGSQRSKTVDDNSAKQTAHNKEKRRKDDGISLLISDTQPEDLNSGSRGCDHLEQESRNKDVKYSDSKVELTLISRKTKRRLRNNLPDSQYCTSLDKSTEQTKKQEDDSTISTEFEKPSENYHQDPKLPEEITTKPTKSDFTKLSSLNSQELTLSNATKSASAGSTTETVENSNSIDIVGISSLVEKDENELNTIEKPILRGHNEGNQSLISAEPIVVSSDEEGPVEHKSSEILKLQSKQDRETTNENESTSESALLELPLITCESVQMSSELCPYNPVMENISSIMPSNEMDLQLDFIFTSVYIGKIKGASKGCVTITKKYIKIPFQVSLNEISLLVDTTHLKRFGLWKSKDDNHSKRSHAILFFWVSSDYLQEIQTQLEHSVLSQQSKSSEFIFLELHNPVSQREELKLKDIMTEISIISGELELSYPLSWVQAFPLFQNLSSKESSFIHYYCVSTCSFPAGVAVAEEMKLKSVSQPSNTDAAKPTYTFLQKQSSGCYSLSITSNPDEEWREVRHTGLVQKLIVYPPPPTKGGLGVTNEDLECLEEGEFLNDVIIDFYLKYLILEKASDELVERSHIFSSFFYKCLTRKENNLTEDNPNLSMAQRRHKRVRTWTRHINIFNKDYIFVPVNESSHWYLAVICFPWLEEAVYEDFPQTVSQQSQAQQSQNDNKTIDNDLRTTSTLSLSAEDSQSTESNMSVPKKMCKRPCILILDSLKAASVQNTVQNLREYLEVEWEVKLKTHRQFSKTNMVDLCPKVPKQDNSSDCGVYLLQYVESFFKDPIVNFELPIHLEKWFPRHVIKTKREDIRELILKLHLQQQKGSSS

[19] = target: T4, Oxysterols receptor LXR-beta (Homo sapiens, UniProt P55055); format: functional, cell-based;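 also: agonist activity at LXR measured by a cell-based luminescence readout across a dose range, run as a counterscreen for daf-12 agonists; HEK293 cells with Gal4-LXR fusion and GAL4-driven luciferase reporter; potency for activation of Gal4-LXR reporter so compounds are agonists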
T4 sequence (P55055 whole entry): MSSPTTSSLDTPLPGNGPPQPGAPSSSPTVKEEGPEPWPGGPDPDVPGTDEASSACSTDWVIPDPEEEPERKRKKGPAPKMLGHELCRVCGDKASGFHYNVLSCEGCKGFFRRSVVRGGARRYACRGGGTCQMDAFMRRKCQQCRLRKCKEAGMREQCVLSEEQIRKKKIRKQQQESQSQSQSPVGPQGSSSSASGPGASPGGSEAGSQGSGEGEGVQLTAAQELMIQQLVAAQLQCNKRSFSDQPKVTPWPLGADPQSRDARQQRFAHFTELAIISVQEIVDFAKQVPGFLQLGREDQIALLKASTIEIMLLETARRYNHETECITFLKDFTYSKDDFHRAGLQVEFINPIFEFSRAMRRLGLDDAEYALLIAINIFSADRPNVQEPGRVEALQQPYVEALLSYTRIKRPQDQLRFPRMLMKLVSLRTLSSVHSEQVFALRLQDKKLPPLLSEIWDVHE

H4 = test: Luminescence Cell-Based Dose Response HTS to Identify Activators of 5'UTR Stem-Loop Driven Prion Protein mRNA Translation in H4 Neuroglioblastoma Cells. [Related pubchem assays: 1829 (Project Summary), 1814 (Primary HTS)]; format: functional; settings: Homo sapiens
Caspase-3 = target: T5, Caspase-3 (Homo sapiens, UniProt P42574); format: functional;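 also: Dose-response selectivity test against caspase-3 for candidate inhibitors of sentrin-specific proteases (SENPs)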
T5 sequence (P42574 whole entry): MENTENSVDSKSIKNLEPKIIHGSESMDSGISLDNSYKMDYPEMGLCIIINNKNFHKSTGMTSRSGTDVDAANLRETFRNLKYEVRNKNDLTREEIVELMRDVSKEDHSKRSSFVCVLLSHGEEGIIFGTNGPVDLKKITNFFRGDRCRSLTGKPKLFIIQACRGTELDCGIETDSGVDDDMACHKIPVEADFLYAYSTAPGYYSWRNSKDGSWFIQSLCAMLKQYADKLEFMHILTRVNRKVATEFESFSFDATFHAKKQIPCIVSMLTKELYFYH

[20] = Luminescence Cell-Based Dose Response HTS to Identify Activators of Luciferase Translation or Activity in H4 […] Cells. [Related pubchem assays: 1829 (Project Summary), 1814 (Primary HTS)]; format: functional
[21] = Luminescence Cell-Based Dose Confirmation to Identify Activators of 5'UTR Stem-Loop Driven Alpha-Synuclein mRNA Translation in H4 Neuroglioblastoma Cells. [Related pubchem assays: 1829 (Project Summary), 1814 (Primary HTS)]; format: functional
[22] = target: T6, Sentrin-specific protease 8 (Homo sapiens, UniProt Q96LD8); format: functional;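 also: luminescence read-out of SENP8 inhibition, dose-response confirmation following an ultra-high-throughput screen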
T6 sequence (Q96LD8 whole entry): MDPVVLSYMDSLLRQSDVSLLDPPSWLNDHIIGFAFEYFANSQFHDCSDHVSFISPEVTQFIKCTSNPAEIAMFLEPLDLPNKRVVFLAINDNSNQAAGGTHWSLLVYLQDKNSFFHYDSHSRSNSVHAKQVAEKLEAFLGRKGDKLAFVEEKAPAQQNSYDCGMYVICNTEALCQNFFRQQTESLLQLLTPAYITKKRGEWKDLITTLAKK

Sequence of Paired box protein Pax-8 (Q06710 whole entry): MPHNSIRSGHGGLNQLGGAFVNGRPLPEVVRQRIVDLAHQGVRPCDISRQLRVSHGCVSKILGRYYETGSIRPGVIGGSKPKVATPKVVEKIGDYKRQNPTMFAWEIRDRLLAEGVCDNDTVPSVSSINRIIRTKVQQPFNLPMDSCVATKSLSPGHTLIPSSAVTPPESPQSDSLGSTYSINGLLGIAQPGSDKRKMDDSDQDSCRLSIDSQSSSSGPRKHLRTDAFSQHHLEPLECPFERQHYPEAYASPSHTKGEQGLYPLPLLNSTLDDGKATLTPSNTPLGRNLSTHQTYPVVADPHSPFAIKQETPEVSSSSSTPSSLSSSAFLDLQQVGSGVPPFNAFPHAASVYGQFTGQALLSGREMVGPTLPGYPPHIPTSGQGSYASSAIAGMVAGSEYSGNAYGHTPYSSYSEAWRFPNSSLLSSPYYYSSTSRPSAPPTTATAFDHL
Sequence of 1-phosphatidylinositol 4,5-bisphosphate phosphodiesterase gamma-1 (P19174 whole entry): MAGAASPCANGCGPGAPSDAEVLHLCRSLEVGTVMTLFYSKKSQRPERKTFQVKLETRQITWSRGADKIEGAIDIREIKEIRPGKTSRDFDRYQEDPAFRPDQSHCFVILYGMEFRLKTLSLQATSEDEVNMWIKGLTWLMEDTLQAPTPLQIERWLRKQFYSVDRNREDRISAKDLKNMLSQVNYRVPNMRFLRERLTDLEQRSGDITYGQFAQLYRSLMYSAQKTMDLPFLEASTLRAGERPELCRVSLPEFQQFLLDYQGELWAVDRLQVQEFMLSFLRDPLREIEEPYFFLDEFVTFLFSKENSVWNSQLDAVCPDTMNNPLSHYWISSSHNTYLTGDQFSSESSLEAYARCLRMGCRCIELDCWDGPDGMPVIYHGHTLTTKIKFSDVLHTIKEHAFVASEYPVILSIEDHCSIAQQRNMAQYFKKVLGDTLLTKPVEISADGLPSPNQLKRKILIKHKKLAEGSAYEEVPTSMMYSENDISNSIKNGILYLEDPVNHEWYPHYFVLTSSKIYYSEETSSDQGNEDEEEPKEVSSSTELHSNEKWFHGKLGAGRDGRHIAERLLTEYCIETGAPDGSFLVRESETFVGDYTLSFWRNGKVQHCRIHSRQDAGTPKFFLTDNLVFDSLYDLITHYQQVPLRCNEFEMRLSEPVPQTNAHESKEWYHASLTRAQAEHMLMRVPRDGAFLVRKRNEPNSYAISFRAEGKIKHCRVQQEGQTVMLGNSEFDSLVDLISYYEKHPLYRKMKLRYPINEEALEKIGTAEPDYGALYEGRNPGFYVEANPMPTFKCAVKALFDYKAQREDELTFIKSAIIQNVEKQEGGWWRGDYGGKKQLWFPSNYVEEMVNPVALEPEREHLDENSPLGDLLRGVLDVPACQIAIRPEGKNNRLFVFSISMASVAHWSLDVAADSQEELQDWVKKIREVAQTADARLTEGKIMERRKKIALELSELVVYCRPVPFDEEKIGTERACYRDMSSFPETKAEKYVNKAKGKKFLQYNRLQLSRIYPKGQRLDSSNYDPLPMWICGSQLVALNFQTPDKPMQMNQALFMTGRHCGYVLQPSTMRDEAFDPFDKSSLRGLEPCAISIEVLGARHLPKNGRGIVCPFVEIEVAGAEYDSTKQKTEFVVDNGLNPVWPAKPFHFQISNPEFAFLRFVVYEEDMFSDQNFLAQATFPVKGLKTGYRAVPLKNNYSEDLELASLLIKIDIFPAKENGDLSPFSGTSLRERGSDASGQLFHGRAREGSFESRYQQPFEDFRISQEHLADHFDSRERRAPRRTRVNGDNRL
Sequence of 1-phosphatidylinositol 4,5-bisphosphate phosphodiesterase beta-3 (Q01970 whole entry): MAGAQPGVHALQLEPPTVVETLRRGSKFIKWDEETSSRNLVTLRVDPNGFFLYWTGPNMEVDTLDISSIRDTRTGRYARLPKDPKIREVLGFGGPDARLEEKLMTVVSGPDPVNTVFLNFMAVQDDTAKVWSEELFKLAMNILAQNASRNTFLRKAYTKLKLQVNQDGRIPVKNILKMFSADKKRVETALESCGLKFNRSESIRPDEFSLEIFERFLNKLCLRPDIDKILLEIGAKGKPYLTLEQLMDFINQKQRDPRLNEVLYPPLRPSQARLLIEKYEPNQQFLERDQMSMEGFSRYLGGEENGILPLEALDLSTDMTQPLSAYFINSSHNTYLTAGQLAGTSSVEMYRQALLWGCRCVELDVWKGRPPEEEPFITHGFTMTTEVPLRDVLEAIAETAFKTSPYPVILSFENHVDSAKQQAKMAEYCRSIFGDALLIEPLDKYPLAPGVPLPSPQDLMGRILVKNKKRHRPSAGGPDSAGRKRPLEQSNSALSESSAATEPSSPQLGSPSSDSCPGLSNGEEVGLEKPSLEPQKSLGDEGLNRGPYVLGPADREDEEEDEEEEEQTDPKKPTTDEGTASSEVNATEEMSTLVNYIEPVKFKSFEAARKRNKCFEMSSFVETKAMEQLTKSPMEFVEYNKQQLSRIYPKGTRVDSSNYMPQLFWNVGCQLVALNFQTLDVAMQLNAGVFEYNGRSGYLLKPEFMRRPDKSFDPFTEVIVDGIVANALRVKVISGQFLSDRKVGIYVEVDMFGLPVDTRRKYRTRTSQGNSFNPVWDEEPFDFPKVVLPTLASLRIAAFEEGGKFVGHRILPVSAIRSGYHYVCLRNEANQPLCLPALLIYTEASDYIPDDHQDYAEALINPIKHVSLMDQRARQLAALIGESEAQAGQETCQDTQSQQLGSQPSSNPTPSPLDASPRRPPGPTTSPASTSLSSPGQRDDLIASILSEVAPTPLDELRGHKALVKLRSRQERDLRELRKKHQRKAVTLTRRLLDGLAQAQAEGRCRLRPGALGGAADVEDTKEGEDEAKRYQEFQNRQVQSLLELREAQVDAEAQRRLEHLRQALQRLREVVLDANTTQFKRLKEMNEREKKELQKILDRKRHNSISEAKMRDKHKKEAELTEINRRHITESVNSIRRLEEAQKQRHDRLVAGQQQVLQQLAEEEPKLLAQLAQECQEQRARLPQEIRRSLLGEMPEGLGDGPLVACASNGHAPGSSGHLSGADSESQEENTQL
Sequence of Nonstructural protein 1 (Q194T2 whole entry): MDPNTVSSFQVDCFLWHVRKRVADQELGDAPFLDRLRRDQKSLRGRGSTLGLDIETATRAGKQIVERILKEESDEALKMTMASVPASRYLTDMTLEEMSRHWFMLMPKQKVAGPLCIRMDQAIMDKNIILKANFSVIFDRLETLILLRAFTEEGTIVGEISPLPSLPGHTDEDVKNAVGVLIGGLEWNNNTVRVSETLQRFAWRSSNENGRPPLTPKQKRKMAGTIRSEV
Sequence of COUP transcription factor 2 (P24468 whole entry): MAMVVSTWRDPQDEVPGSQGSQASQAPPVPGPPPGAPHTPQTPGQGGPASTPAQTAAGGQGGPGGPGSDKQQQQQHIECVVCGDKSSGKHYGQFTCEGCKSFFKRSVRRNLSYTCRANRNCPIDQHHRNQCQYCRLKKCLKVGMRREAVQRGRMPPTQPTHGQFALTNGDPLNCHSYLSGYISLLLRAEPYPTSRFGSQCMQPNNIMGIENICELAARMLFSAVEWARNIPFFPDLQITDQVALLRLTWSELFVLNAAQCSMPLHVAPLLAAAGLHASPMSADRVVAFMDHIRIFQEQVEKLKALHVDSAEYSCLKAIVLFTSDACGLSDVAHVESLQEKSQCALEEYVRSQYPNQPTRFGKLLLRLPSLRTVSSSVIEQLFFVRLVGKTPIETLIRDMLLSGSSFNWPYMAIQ

C[C@H]1CCCCO[C@H](CN(C)C(=O)NC2CCCCC2)[C@@H](C)CN([C@@H](C)CO)C(=O)c2cc(NC(=O)Nc3ccc(C(F)(F)F)cc3)ccc2O1
AC50 (Paired box protein Pax-8): 8.03 µM (active) | AC50 [1]: 67.2 µM (active) | AC50 [2]: 47.5 µM (active)

Cc1ccc(S(=O)(=O)NC2=C(N3CCN(c4ccccc4F)CC3)C(=O)c3ccccc3C2=O)cc1
IC50 [3]: > 122 µM (inactive) | IC50 (Nonstructural protein 1): 32.5 µM (active) | IC50 [4]: > 122 µM (inactive)

C[C@@H]1CN([C@@H](C)CO)C(=O)c2cc(NC(=O)Cc3ccccc3)ccc2O[C@@H](C)CCCCO[C@H]1CN(C)Cc1ccc(C(F)(F)F)cc1
AC50 (Paired box protein Pax-8): 9.1 µM (active) | AC50 [1]: > 70 µM (inactive) | AC50 [2]: 44.6 µM (active)

Fc1ccc(N=C(S)N2CCCN(c3ccc(C(F)(F)F)cn3)CC2)c(F)c1
AC50 [5]: 1.09 µM (active) | EC50 (cells): > 29.9 µM (inactive) | AC50 [6]: 27 µM (active) | IC50 [7]: 3.07 µM (active) | IC50 (Galanin receptor type 3): 0.142 µM (active) | AC50 [8]: 3.71 µM (active)

c1csc(-c2nc(CN3CCSCC3)cs2)c1
AC50 [9]: 14.8 µM (active) | AC50 [10]: > 52 µM (inactive) | AC50 [11]: > 52 µM (inactive) | AC50 [12]: 26 µM (active) | AC50 [13]: 18.8 µM (active) | AC50 [14]: > 52 µM (inactive)

COCCNCCCOc1ccc(Br)cc1Cl
IC50 [3]: > 123 µM (inactive) | IC50 [4]: > 123 µM (inactive)

Cc1ccc(S(=O)(=O)NC(=NC(S)=Nc2ccccc2)c2ccccc2)cc1
IC50 [15]: 14.1 µM (active) | EC50 [16]: 0.308 µM (active) | EC50 [17]: 2.54 µM (active) | IC50 [18]: 4.8 µM (active) | EC50 [19]: > 67.5 µM (inactive) | EC50 (H4): < 0.1 µM (active) | IC50 (Caspase-3): 20.4 µM (active) | EC50 [20]: < 0.1 µM (inconclusive) | EC50 [21]: 0.786 µM (active) | IC50 [22]: 22.5 µM (active)
